Laboratory results from patent US20050065118A1, “Organosulfur inhibitors of tyrosine phosphatases” (priority 2001, published 2005).
Several values for one entry are separate records, joined by “and”; a condition that tells them apart may be missing. Identical values can stand only once.

What was measured:
PTP-1B = target: T1, PTP-1B (Homo sapiens, UniProt P18031); assay: PTP-1B inhibition, Malachite Green assay with pIRP substrate; type: biochemical
T1 sequence (P18031 1-435): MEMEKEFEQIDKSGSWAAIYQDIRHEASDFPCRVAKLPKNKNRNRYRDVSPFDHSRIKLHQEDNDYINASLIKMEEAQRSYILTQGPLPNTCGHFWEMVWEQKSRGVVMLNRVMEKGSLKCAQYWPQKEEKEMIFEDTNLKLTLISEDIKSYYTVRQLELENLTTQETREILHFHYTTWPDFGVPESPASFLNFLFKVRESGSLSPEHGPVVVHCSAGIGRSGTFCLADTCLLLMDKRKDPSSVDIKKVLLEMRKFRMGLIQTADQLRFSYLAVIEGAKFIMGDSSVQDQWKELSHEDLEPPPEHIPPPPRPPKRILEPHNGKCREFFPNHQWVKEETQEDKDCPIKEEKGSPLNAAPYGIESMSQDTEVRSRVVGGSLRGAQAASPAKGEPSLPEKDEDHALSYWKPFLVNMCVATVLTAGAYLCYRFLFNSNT
Description: The compounds of the present invention are evaluated for biological activity as inhibitors of PTP-1B using, for example, a Malachite Green assay with pIRP as a substrate. The pIRP substrate includes a phosphotyrosine residue, and PTP-1B cleaves the phosphate group from the tyrosine, yielding the peptide and phosphate. The rate of the enzymatic reaction is determined by measuring the phosphate released during the reaction.
The reactants for the assay include 20 mM Tris-HCl, pH 7.4, 2 mM EDTA (ethylaminediamine tetraacetic acid) and 2 mM DTT (dithiothreitol) as the assay buffer, and 1 mM pIRP in assay buffer (1 mg in 0.59 mL buffer) as the substrate stock. The Malachite Green solution is prepared by adding 30 μL of 1% Tween 20 to 1 mL of Malachite Green Solution A. The stock of each compound to be tested is made up as 10 mM in DMSO (dimethylsulfoxide).
The compound to be tested is prepared as 1:5, 1:15.8, 1:50 and 1:158 dilutions from stock in a total volume of […]. The reaction mixtures are prepared in a 96-well microtiter plate as 27.5 μL assay buffer, […] of the diluted compound (to a final concentration of 100, 32, 10 and 3.2 μM), 10 μL of the pIRP substrate solution (to a final concentration of 200 μM) and 10 μL PTPase in assay buffer. The reactants are mixed well, the plate placed in a water bath at 30° C. and incubated for 3 minutes. The reaction is then terminated by adding 100 μL of Malachite Green solution per well, color is allowed to develop for 15 minutes, and the A650 is measured by conventional means.
Unless otherwise indicated, this assay was used to determine activity for the selected compounds whose activity is recorded in the Table.

PTP-β = target: T2, PTP-β (Homo sapiens, UniProt P23467); assay: PTP-β inhibition, pNPP tyrosine phosphatase assay; type: biochemical
T2 construct: purchased UBI #14-350
T2 sequence (P23467 1643-1997 limits assumed): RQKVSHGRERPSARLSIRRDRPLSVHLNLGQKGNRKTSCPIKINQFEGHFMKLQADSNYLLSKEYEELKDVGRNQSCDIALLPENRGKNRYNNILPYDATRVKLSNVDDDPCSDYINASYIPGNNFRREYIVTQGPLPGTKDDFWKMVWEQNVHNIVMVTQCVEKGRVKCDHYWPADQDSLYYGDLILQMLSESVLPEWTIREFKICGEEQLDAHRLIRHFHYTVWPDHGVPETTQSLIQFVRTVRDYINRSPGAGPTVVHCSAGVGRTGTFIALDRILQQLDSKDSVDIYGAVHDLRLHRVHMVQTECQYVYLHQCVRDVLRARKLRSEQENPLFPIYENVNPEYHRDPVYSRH
Description: (§1) Alternatively, a pNPP assay can be used to screen compounds for tyrosine phosphatase inhibitory activity as follows: A 5× stock of pNPP (p-nitrophenol phosphate) substrate is prepared as 50 mM pNPP in assay buffer prepared as described above. Various tyrosine phosphatase solutions can be prepared as follows: • PTP-1B (SBI purified, 1 mg/mL) as a 1:250 dilution (to a final concentration of 4 μg/mL); • TC-PTP (NEB, 1000 units in 100 μL) as a 1:50 dilution (to a final concentration of 2U/10 μL (4 μg/mL)); • CD45 (Calbiochem, 20 μg, 400 units in 100 μL) as a 1:50 dilution (to a final concentration of 0.8U/10 μL (4 μg/mL)); • LAR (NEB, 1000 units in 200 μL) as a 1:75 dilution (to a final concentration of 0.7U/10 μL (4 μg/mL)); and • PTP-β (UBI, #14-350, 10,000 units, 40 μg/571 μL) as a 1:17.5 dilution (to a final concentration of 10U/10 μL (4 μg/mL));
(§2) The compound to be tested is prepared as 1:16.7 and 1:50 dilutions from stock in a total volume of […] to give final concentrations of 626 and 200 μM. The reaction mixtures are prepared in a 96-well microtiter plate (on ice) as 55 μL assay buffer, 5 μL of the diluted compound (to a final concentration of 31.3 and 10 μM), 20 μL of the pNPP substrate solution (to a final concentration of 10 mM) and 20 μL PTease in assay buffer. The reactants are mixed well, the plate placed in a water bath at 30° C. and incubated for 10 minutes. The reaction is then terminated by adding 100 μL of 2M K2CO3 per well, and the absorbance is measured at 405 nm by conventional means.

TC-PTP = target: T3, TC-PTP (Homo sapiens, UniProt P17706); assay: TC-PTP inhibition, pNPP tyrosine phosphatase assay; type: biochemical; settings: two values in a cell = two determinations
T3 construct: purchased NEB
T3 sequence (P17706 1-317 limits assumed): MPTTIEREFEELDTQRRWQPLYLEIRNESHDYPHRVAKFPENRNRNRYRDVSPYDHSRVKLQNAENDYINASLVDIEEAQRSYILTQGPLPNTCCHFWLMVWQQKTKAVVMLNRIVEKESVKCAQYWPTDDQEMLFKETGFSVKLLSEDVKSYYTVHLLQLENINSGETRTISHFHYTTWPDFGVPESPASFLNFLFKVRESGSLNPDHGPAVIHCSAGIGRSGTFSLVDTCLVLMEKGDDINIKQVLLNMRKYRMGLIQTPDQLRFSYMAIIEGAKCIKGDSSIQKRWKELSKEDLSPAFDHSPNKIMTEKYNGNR
Description: as §1, §2

CD-45 = target: T4, CD-45 (Homo sapiens, UniProt P08575); assay: CD45 inhibition, pNPP tyrosine phosphatase assay; type: biochemical
T4 construct: purchased Calbiochem
T4 sequence (P08575 609-1306 limits assumed): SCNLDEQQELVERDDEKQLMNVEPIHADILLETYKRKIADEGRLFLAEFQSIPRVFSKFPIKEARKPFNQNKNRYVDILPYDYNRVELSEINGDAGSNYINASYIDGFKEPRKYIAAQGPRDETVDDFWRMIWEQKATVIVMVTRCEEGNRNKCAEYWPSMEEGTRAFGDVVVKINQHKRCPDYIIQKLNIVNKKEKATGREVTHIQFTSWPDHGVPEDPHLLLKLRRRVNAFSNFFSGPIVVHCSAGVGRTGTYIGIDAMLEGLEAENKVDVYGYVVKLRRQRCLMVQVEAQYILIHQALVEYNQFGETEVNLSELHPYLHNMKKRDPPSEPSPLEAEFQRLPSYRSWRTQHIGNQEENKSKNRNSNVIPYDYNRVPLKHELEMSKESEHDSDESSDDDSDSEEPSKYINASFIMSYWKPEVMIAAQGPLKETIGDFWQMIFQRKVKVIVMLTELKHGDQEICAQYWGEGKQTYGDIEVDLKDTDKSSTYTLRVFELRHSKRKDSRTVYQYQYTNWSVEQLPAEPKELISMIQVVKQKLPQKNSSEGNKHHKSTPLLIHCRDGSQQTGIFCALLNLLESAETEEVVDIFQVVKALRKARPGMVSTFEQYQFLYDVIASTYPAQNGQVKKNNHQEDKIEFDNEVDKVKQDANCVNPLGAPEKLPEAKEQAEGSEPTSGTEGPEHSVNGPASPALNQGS
Description: as §1, §2

| IC50 (PTP-1B) | IC50 (PTP-β) | IC50 (TC-PTP) | IC50 (CD-45) | melting point | Structure (SMILES) |
| --- | --- | --- | --- | --- | --- |
| 1 µM | 5 µM | 1 µM | 5 µM |  | O=C(O)c1ccc(Cn2nc(-c3cccc(Oc4cccc(C(F)(F)F)c4)c3)sc2=Nc2ccc(Cl)c(Cl)c2)cc1 [Compound 187, 4-{2-(3,4-Dichloro-phenylimino)-5-[3{3-trifluoromethyl-phenoxy)-phenyl]-[1,3,4]thiadiaziol-3-ylmethyl}-benzoic acid] |
| 5 µM |  |  |  | 220 °C (dec.) | C/C(=N\OCC(=O)O)c1cccc(Nc2nnc(-c3cccc(Oc4cccc(C(F)(F)F)c4)c3)s2)c1 [Compound 190, [1-(3-{5-[3-(3-Trifluoromethyl-phenoxy)-phenyl]-[1,3,4]thiadiazol-2-ylamino}-phenyl)-ethylideneaminooxy]acetic acid] |
| 12 µM | 31 µM | 15 µM | 17 µM | 258 to 259 °C | O=C(O)c1cccc(Oc2cccc(-c3nnc(Nc4ccc(Cl)c(Cl)c4)s3)c2)c1 [Example 7, (3-(3-{5[(3,4-dichlorophenyl)amino]-1,3,4-thiadiazol-2-yl}phenoxy)benzoic acid)] |
| 5 µM | 24 µM | 12 µM | 10 µM |  | Clc1ccc(Nc2nnc(-c3cccc(Oc4cccc(-c5nnn[nH]5)c4)c3)s2)cc1Cl [Example 14, {5-[3-(3-(1H-1,2,3,4-tetraazol-5-yl)phenoxy)phenyl](1,3,4-thiadiazol-2-yl)}(3,4-dichlorophenyl)amine] |
| 7 µM | > 100 µM | 20 µM | 25 µM | 204 to 205 °C | CCOc1cccc(-c2nnc(Nc3ccc(Br)c(Cl)c3)s2)c1 [Example 66, (4-bromo-3-chlorophenyl)[5-(3-ethoxyphenyl)(1,3,4-thiadiazol-2-yl)]amine] |
| 7 µM | > 100 µM | 14 µM and 8 µM | 80 µM |  | O=[N+]([O-])c1cccc(-c2nnc(Nc3cccc(Br)c3)s2)c1 [Example 80, (3-bromophenyl)[5-(3-nitrophenyl)(1,3,4-thiadiazol-2-yl)]amine] |
| 6 µM | > 100 µM | 20 µM and 12 µM | 20 µM |  | Clc1cc(Nc2nnc(-c3cccc(Oc4ccccc4)c3)s2)ccc1Br [Example 135] |
| 1 µM |  |  |  | 172 to 174 °C | O=C(O)C(=O)Nc1ccc(CN(c2ccc(Cl)c(Cl)c2)c2nnc(-c3cccc(Oc4cccc(C(F)(F)F)c4)c3)s2)cc1 [Example 169] |
| 2 µM |  |  |  | 137 to 142 °C (dec.) | O=C(O)CCCn1nnnc1-c1cccc(Oc2cccc(-c3nnc(Nc4ccc(Cl)c(Cl)c4)s3)c2)c1 [Example 171] |
| 0.8 µM | 30 µM | 1.6 µM | 14 µM | 259 to 262 °C | O=C(O)c1ccc(N/N=C/c2cccc(Oc3cccc(-c4nnc(Nc5ccc(Cl)c(Cl)c5)s4)c3)c2)cc1 [Example 172] |

| Structure (SMILES) | IC50 (PTP-1B) | IC50 (PTP-β) | IC50 (TC-PTP) | IC50 (CD-45) | melting point |
| --- | --- | --- | --- | --- | --- |
| COc1cccc(-c2nn3cc(-c4ccc(-c5ccccc5)cc4)nc3s2)c1 [Example 16, (3-methoxy-1-(6-(4-phenylphenyl)imidazolo(2,1-b)1,3,4-thiadiazolin-2-yl)benzene)] | 12 µM | > 100 µM |  | 30 µM |  |
